Test results: ChEMBL document CHEMBL3046897, “Synthesis of 3-{4-[4-dimethylamino-6-(4-methyl-2-oxo-2H-chromen-7-yloxy)-[1,3,5]triazin-2-ylamino]-phenyl}-2-phenyl-5-(4-pyridin-2-yl-piperazin-1-ylmethyl)-thiazolidin-4-one and their biological evaluation” (2012)
Converted amounts (≈) assume the structure as drawn.

How the values were obtained:
Type in all cases: functional
Pseudomonas aeruginosa [1] = experiment: Antibacterial activity against Pseudomonas aeruginosa at 100 ug/disk after 24 hr by paper disk diffusion method; details: read-out: IZ
Escherichia coli [2] = experiment: Antibacterial activity against Escherichia coli at 100 ug/disk after 24 hr by paper disk diffusion method; details: read-out: IZ
Bacillus subtilis [3] = experiment: Antibacterial activity against Bacillus subtilis after 24 hr by agar streak dilution method
Candida albicans [4] = experiment: Antifungal activity against Candida albicans after 48 hr by agar streak dilution method
Aspergillus clavatus [5] = experiment: Antifungal activity against Aspergillus clavatus after 48 hr by agar streak dilution method
Klebsiella pneumoniae [6] = experiment: Antibacterial activity against Klebsiella pneumoniae at 100 ug/disk after 24 hr by paper disk diffusion method; details: read-out: IZ
Bacillus subtilis [7] = experiment: Antibacterial activity against Bacillus subtilis at 100 ug/disk after 24 hr by paper disk diffusion method; details: read-out: IZ
Aspergillus clavatus [8] = experiment: Antifungal activity against Aspergillus clavatus at 100 ug/disc after 48 hr by paper disk diffusion method; details: read-out: IZ
Aspergillus fumigatus [9] = experiment: Antifungal activity against Aspergillus fumigatus at 100 ug/disc after 48 hr by paper disk diffusion method; details: read-out: IZ
Proteus vulgaris [10] = experiment: Antibacterial activity against Proteus vulgaris at 100 ug/disk after 24 hr by paper disk diffusion method; details: read-out: IZ
Klebsiella pneumoniae [11] = experiment: Antibacterial activity against Klebsiella pneumoniae after 24 hr by agar streak dilution method
Escherichia coli [12] = experiment: Antibacterial activity against Escherichia coli after 24 hr by agar streak dilution method
Salmonella typhi [13] = experiment: Antibacterial activity against Salmonella enterica subsp. enterica serovar Typhi at 100 ug/disk after 24 hr by paper disk diffusion method; details: read-out: IZ
Proteus vulgaris [14] = experiment: Antibacterial activity against Proteus vulgaris after 24 hr by agar streak dilution method
Candida albicans [15] = experiment: Antifungal activity against Candida albicans at 100 ug/disk after 48 hr by paper disk diffusion method; details: read-out: IZ
Aspergillus niger [16] = experiment: Antifungal activity against Aspergillus niger at 100 ug/disk after 48 hr by paper disk diffusion method; details: read-out: IZ
Aspergillus fumigatus [17] = experiment: Antifungal activity against Aspergillus fumigatus after 48 hr by agar streak dilution method
Shigella flexneri [18] = experiment: Antibacterial activity against Shigella flexneri at 100 ug/disc after 24 hr by paper disk diffusion method; details: read-out: IZ
Shigella flexneri [19] = experiment: Antibacterial activity against Shigella flexneri after 24 hr by agar streak dilution method
Aspergillus niger [20] = experiment: Antifungal activity against Aspergillus niger after 48 hr by agar streak dilution method
Staphylococcus aureus [21] = experiment: Antibacterial activity against Staphylococcus aureus at 100 ug/disc after 24 hr by paper disk diffusion method; details: read-out: IZ
Pseudomonas aeruginosa [22] = experiment: Antibacterial activity against Pseudomonas aeruginosa after 24 hr by agar streak dilution method
Staphylococcus aureus [23] = experiment: Antibacterial activity against Staphylococcus aureus after 24 hr by agar streak dilution method
Salmonella typhi [24] = experiment: Antibacterial activity against Salmonella enterica subsp. enterica serovar Typhi after 24 hr by agar streak dilution method

| Structure (SMILES) | zone of inhibition at 100 µg/disc (Pseudomonas aeruginosa [1]) [mm] | zone of inhibition at 100 µg/disc (Escherichia coli [2]) [mm] | MIC (Bacillus subtilis [3]) [µg/mL] | MIC (Candida albicans [4]) [µg/mL] | MIC (Aspergillus clavatus [5]) [µg/mL] | zone of inhibition at 100 µg/disc (Klebsiella pneumoniae [6]) [mm] | zone of inhibition at 100 µg/disc (Bacillus subtilis [7]) [mm] | zone of inhibition at 100 µg/disc (Aspergillus clavatus [8]) [mm] | zone of inhibition at 100 µg/disc (Aspergillus fumigatus [9]) [mm] | zone of inhibition at 100 µg/disc (Proteus vulgaris [10]) [mm] | MIC (Klebsiella pneumoniae [11]) [µg/mL] | MIC (Escherichia coli [12]) [µg/mL] | zone of inhibition at 100 µg/disc (Salmonella typhi [13]) [mm] | MIC (Proteus vulgaris [14]) [µg/mL] | zone of inhibition at 100 µg/disc (Candida albicans [15]) [mm] | zone of inhibition at 100 µg/disc (Aspergillus niger [16]) [mm] | MIC (Aspergillus fumigatus [17]) [µg/mL] | zone of inhibition at 100 µg/disc (Shigella flexneri [18]) [mm] | MIC (Shigella flexneri [19]) [µg/mL] | MIC (Aspergillus niger [20]) [µg/mL] | also measured |
| --- | --- | --- | --- | --- | --- | --- | --- | --- | --- | --- | --- | --- | --- | --- | --- | --- | --- | --- | --- | --- | --- |
| COc1ccc(C2SCC(=O)N2c2ccc(Nc3nc(Oc4ccc5c(C)cc(=O)oc5c4)nc(N(C)C)n3)cc2)cc1 (configuration not stated) | 15 | 12 | 100 (≈ 168 µM) | 50 (≈ 83.8 µM) | 100 (≈ 168 µM) | 17 | 16 | 16 | 17 | 18 | 50 (≈ 83.8 µM) | 100 (≈ 168 µM) | 19 | 50 (≈ 83.8 µM) | 20 | 19 | 50 (≈ 83.8 µM) | 13 | 100 (≈ 168 µM) | 50 (≈ 83.8 µM) | zone of inhibition at 100 µg/disc (Staphylococcus aureus [21]): 18 mm; MIC (Pseudomonas aeruginosa [22]): 100 µg/mL (≈ 168 µM); MIC (Staphylococcus aureus [23]): 50 µg/mL (≈ 83.8 µM); MIC (Salmonella typhi [24]): 50 µg/mL (≈ 83.8 µM) |
| Cc1cc(=O)oc2cc(Oc3nc(Nc4ccc(N5C(=O)CSC5c5ccc(F)cc5)cc4)nc(N(C)C)n3)ccc12 (configuration not stated) | 22 | 17 | 25 (≈ 42.8 µM) | 12.5 (≈ 21.4 µM) | 25 (≈ 42.8 µM) | 15 | 20 | 22 | 18 | 20 | 100 (≈ 171 µM) | 50 (≈ 85.5 µM) | 17 | 25 (≈ 42.8 µM) | 24 | 25 | 50 (≈ 85.5 µM) | 18 | 50 (≈ 85.5 µM) | 12.5 (≈ 21.4 µM) | zone of inhibition at 100 µg/disc (Staphylococcus aureus [21]): 23 mm; MIC (Pseudomonas aeruginosa [22]): 25 µg/mL (≈ 42.8 µM); MIC (Staphylococcus aureus [23]): 25 µg/mL (≈ 42.8 µM); MIC (Salmonella typhi [24]): 50 µg/mL (≈ 85.5 µM) |
| Cc1cc(=O)oc2cc(Oc3nc(Nc4ccc(N5C(=O)CSC5c5ccccc5Br)cc4)nc(N(C)C)n3)ccc12 (configuration not stated) | 20 | 17 | 50 (≈ 77.5 µM) | 25 (≈ 38.7 µM) | 50 (≈ 77.5 µM) | 13 | 20 | 20 | 23 | 16 | 100 (≈ 155 µM) | 100 (≈ 155 µM) | 12 | 50 (≈ 77.5 µM) | 21 | 19 | 25 (≈ 38.7 µM) | 10 | 100 (≈ 155 µM) | 100 (≈ 155 µM) | zone of inhibition at 100 µg/disc (Staphylococcus aureus [21]): 17 mm; MIC (Pseudomonas aeruginosa [22]): 50 µg/mL (≈ 77.5 µM); MIC (Staphylococcus aureus [23]): 50 µg/mL (≈ 77.5 µM); MIC (Salmonella typhi [24]): 100 µg/mL (≈ 155 µM) |
| Cc1cc(=O)oc2cc(Oc3nc(Nc4ccc(N5C(=O)C(CN6CCN(c7ccccn7)CC6)SC5c5ccc(O)cc5)cc4)nc(N(C)C)n3)ccc12 (configuration not stated) | 23 | 30 | 6.25 (≈ 8.25 µM) | 12.5 (≈ 16.5 µM) | 25 (≈ 33 µM) | 19 | 25 | 21 | 25 | 25 | 25 (≈ 33 µM) | 6.25 (≈ 8.25 µM) | 27 | 12.5 (≈ 16.5 µM) | 23 | 27 | 6.25 (≈ 8.25 µM) | 22 | 25 (≈ 33 µM) | 6.25 (≈ 8.25 µM) | zone of inhibition at 100 µg/disc (Staphylococcus aureus [21]): 27 mm; MIC (Pseudomonas aeruginosa [22]): 12.5 µg/mL (≈ 16.5 µM); MIC (Staphylococcus aureus [23]): 6.25 µg/mL (≈ 8.25 µM); MIC (Salmonella typhi [24]): 6.25 µg/mL (≈ 8.25 µM) |
| Cc1cc(=O)oc2cc(Oc3nc(Nc4ccc(N5C(=O)C(CN6CCN(c7ccccn7)CC6)SC5c5ccc(F)cc5)cc4)nc(N(C)C)n3)ccc12 (configuration not stated) | 26 | 20 | 12.5 (≈ 16.5 µM) | 6.25 (≈ 8.23 µM) | 6.25 (≈ 8.23 µM) | 18 | 23 | 26 | 21 | 22 | 50 (≈ 65.8 µM) | 25 (≈ 32.9 µM) | 19 | 12.5 (≈ 16.5 µM) | 27 | 29 | 12.5 (≈ 16.5 µM) | 21 | 25 (≈ 32.9 µM) | 6.25 (≈ 8.23 µM) | zone of inhibition at 100 µg/disc (Staphylococcus aureus [21]): 28 mm; MIC (Pseudomonas aeruginosa [22]): 6.25 µg/mL (≈ 8.23 µM); MIC (Staphylococcus aureus [23]): 6.25 µg/mL (≈ 8.23 µM); MIC (Salmonella typhi [24]): 50 µg/mL (≈ 65.8 µM) |
| COc1ccc(C2SCC(=O)N2c2ccc(Nc3nc(Oc4ccc5c(C)cc(=O)oc5c4)nc(N(C)C)n3)cc2)cc1OC (configuration not stated) | 12 | 11 | 100 (≈ 160 µM) | 100 (≈ 160 µM) | 100 (≈ 160 µM) | < 10 | 14 | 13 | < 10 | 12 | 100 (≈ 160 µM) | 100 (≈ 160 µM) | 14 | 100 (≈ 160 µM) | < 10 | 15 | 100 (≈ 160 µM) | 17 | 50 (≈ 79.8 µM) | 100 (≈ 160 µM) | zone of inhibition at 100 µg/disc (Staphylococcus aureus [21]): 17 mm; MIC (Pseudomonas aeruginosa [22]): 100 µg/mL (≈ 160 µM); MIC (Staphylococcus aureus [23]): 50 µg/mL (≈ 79.8 µM); MIC (Salmonella typhi [24]): 100 µg/mL (≈ 160 µM) |
| Cc1cc(=O)oc2cc(Oc3nc(Nc4ccc(N5C(=O)C(CN6CCN(c7ccccn7)CC6)SC5c5ccccc5Br)cc4)nc(N(C)C)n3)ccc12 (configuration not stated) | 22 | 20 | 25 (≈ 30.5 µM) | 12.5 (≈ 15.2 µM) | 12.5 (≈ 15.2 µM) | 17 | 22 | 23 | 27 | 19 | 50 (≈ 60.9 µM) | 50 (≈ 60.9 µM) | 14 | 50 (≈ 60.9 µM) | 25 | 25 | 6.25 (≈ 7.61 µM) | 15 | 100 (≈ 122 µM) | 25 (≈ 30.5 µM) | zone of inhibition at 100 µg/disc (Staphylococcus aureus [21]): 20 mm; MIC (Pseudomonas aeruginosa [22]): 25 µg/mL (≈ 30.5 µM); MIC (Staphylococcus aureus [23]): 50 µg/mL (≈ 60.9 µM); MIC (Salmonella typhi [24]): 100 µg/mL (≈ 122 µM) |
| Cc1cc(=O)oc2cc(Oc3nc(Nc4ccc(N5C(=O)CSC5c5ccc(Cl)cc5)cc4)nc(N(C)C)n3)ccc12 (configuration not stated) | 15 | 20 | 100 (≈ 166 µM) | 25 (≈ 41.6 µM) | 25 (≈ 41.6 µM) | 18 | 16 | 21 | 18 | 20 | 50 (≈ 83.2 µM) | 50 (≈ 83.2 µM) | 21 | 25 (≈ 41.6 µM) | 22 | 15 | 50 (≈ 83.2 µM) | 24 | 12.5 (≈ 20.8 µM) | 100 (≈ 166 µM) | zone of inhibition at 100 µg/disc (Staphylococcus aureus [21]): 18 mm; MIC (Pseudomonas aeruginosa [22]): 100 µg/mL (≈ 166 µM); MIC (Staphylococcus aureus [23]): 50 µg/mL (≈ 83.2 µM); MIC (Salmonella typhi [24]): 25 µg/mL (≈ 41.6 µM) |
